Drawing on patent US11753411B2, “Substituted pyrazolo[1,5-a]pyrimidines as TYK2 pseudokinase ligands” (Ventyx Biosciences, Inc., priority 2019, dated 2023), this text covers IC50 for 25 molecules.

By IC50 is commonly meant the midpoint of a concentration-inhibition curve.

The subject of the assay is IFN-a/Jak1 Tyk2. The assay can be described thus: Co-stimulation assay in lysed whole blood: IFNa (JAK1/TYK2) stimulated STAT1 phosphorylation. It is filed as cell-based. The following applies: Homo sapiens, 20 min, 100 ng/mL IFNa (with 10 ng/mL GM-CSF), pSTAT by flow cytometry. As to the method:
Example 12: Co-Stimulation Assay in Lysed Whole Blood; JAK2: GM-CSF Stimulated STAT5 Phosphorylation and JAK1/TYK2 Stimulated STAT1 Phosphorylation Assay
Human Blood Lysis Using Abcam's RBC Lysis Buffer
Dilute RBC lysis buffer to 1× in distilled water. Add 2 mL blood to 38 mL of 1×RBC-lysis buffer. Incubate for 15 mins at RT, in dark. Spin at 300 g, 5 mins, to collect the pellet. Re-lyse if necessary. Re-suspend pellet in 5 mL of cRPMI.
Compound and Cytokine Treatment
Aliquot 80 μL of lysed human blood in to wells of 96 deep-well plate. Add 10 μl of (10× conc.) of different concentrations of compounds to all wells except controls (unstained and unstimulated) and mix it with the help of 100 uL multichannel. Add 10 uL of RPMI media in controls. For dilution of compounds and dilution range please refer Appendix. Incubate on water bath or CO2 incubator for 1 hour at 37° C. Add 10 μl of (10× conc.) of cytokine mix (GM-CSF and IFNa) (final conc.10 ng/mL of GM-CSF and 100 ng/mL of IFNa) to each well except unstimulated and unstained controls and incubate further for 20 minutes on water bath at 37° C.
Add 900 μL of prewarmed 1× Fix/Lyse solution (Appendix) and mix it properly using 1000 μl multichannel, incubate further on water bath at 37° C. for 10 minutes (which includes time of addition). Centrifuge at 800×g for 5 minutes at 40° C.; remove 900 uL of supernatant and add 900 μL of 1×PBS. Centrifuge at 800×g for 5 minutes at 40° C., remove 900 μL of supernatant. Wash one more time with 900 μL of PBS (optional) and resuspend pellets in 100 uL of PBS.
Disrupt the pellet by gentle tapping and resuspend in 1000 μL of BD Phosflow Perm Buffer III and incubate plate on ice for 30 minutes. Centrifuge plate at 800×g for 5 minutes at 40° C. Wash two more times with 1000 μL of BD Pharmingen Stain Buffer.
Disrupt the pellet by gentle tapping. Resuspend pellets in 100 uL of Stain Buffer and add 5 μL of pSTAT5_AF488 Ab and 5 uL of pSTAT_PE in all wells except unstained control and mix properly using 200 μl multichannel, incubate overnight at […]. Add 900 μL of wash buffer and centrifuge at 1800 rpm for 3 minutes at 40° C. Wash one more time with 1000 μL of BD Pharmingen Stain Buffer. Finally resuspend the pellet in 300 uL of BD Pharmingen Stain Buffer. Transfer the cells to 96-well v-bottom plate and acquire the cells in Beckman Coulter CytExpert. Acquiring cells in Flow Cytometer: Keep the threshold value to 250 and cell concentration should not exceed 100-500 cells/μL. Acquire at least 5,000-10,000 cells.
RPMI 1640 Complete Medium: RPMI 1640 media+10% FBS.
Cytokine dilution: 1) GM-CSF Stock at 100 ug/mL. Prepare an intermediate dilution of 1 ug/mL by adding 2 uL of stock into 198 uL of cRPMI. Further dilute to 100 ng/mL by adding 100 uL of the intermediate stock to 900 uL of cRPMI. 2) IFNa Stock at 200 ug/mL. Dilute IFNa stock 1:200 by adding 5 uL of stock into the 1000 uL of 100 ng/mL GM-CSF working stock as above to give a combined working stock of 1000 ng/mL of IFNa and 100 ng/mL GM-CSF (10×). Keep it on ice until used.
Lyse/Fix buffer preparation: Dilute 5× Lyse/Fix buffer to 1× using MQ water and keep at 37° C. until used.
BD Phosflow perm buffer III: Keep on ice/fridge.

Turning to `CNC(=O)Nc1cnn2c(NC)cc(Nc3cc(C)ccc3OC)nc12` [Compound 68, 1-(5-((2-methoxy-5-methylphenyl)amino)-7-(methylamino)pyrazolo[1,5-a]pyrimidin-3-yl)-3-methylurea], the IC50 was less than 1000 nM.

`CNc1cc(Nc2cc(F)cc3c2OCCO3)nc2c(NC(=O)NC3CC3)cnn12` [Compound 69, 1-cyclopropyl-3-(5-((7-fluoro-2,3-dihydrobenzo[b][1,4]dioxin-5-yl)amino)-7-(methylamino)pyrazolo[1,5-a]pyrimidin-3-yl)urea]: the IC50 is less than 1000 nM.

The molecule `CNC(=O)Nc1cnn2c(NC)cc(Nc3cc(OC)cc(OC)c3)nc12` [Compound 70, 1-(5-((3,5-dimethoxyphenyl)amino)-7-(methylamino)pyrazolo[1,5-a]pyrimidin-3-yl)-3-methylurea] showed a half-inhibitory concentration (IC50) of less than 1000 nM.

Turning to `CNC(=O)Nc1cnn2c(NC)cc(Nc3ccccc3-c3ncco3)nc12` [Compound 71, 1-methyl-3-(7-(methylamino)-5-((2-(oxazol-2-yl)phenyl)amino)pyrazolo[1,5-a]pyrimidin-3-yl)urea], the IC50 is less than 1000 nM.

`CNC(=O)Nc1cnn2c(NC)cc(-c3cn(C(C)C)c4ncccc34)nc12` [Compound 72, 1-(5-(1-isopropyl-1H-pyrrolo[2,3-b]pyridin-3-yl)-7-(methylamino)pyrazolo[1,5-a]pyrimidin-3-yl)-3-methylurea] came in with an IC50 of less than 1000 nM.

Regarding `[2H]C([2H])([2H])Nc1cc(-c2cn(C3CCOCC3)c3ncccc23)nc2c(NC(=O)NC)cnn12` [Compound 73, 1-methyl-3-(7-((methyl-d3)amino)-5-(1-(tetrahydro-2H-pyran-4-yl)-1H-pyrrolo[2,3-b]pyridin-3-yl)pyrazolo[1,5-a]pyrimidin-3-yl)urea], the IC50 is less than 1000 nM.

Turning to `CNC(=O)Nc1cnn2c(NC)cc(-c3cn(C)c4ncccc34)nc12` [Compound 74, 1-methyl-3-(5-(1-methyl-1H-pyrrolo[2,3-b]pyridin-3-yl)-7-(methylamino)pyrazolo[1,5-a]pyrimidin-3-yl)urea], the IC50 is 1000 to 10000 nM.

On to `[2H]C([2H])([2H])Nc1cc(-c2cn(C3CCOC3)c3ncccc23)nc2c(NC(=O)NC)cnn12` (stereo not shown) [Compound 75, 1-methyl-3-(7-((methyl-d3)amino)-5-(1-(tetrahydrofuran-3-yl)-1H-pyrrolo[2,3-b]pyridin-3-yl)pyrazolo[1,5-a]pyrimidin-3-yl)urea], for which the IC50 was less than 1000 nM.

As for `CNC(=O)Nc1cnn2c(NC)cc(Nc3cc(C(F)(F)F)cc4c3OCCO4)nc12` [Compound 76, 1-methyl-3-(7-(methylamino)-5-((7-(trifluoromethyl)-2,3-dihydrobenzo[b][1,4]dioxin-5-yl)amino)pyrazolo[1,5-a]pyrimidin-3-yl)urea], the IC50 is less than 1000 nM.

The molecule `CNC(=O)Nc1cnn2c(NC)cc(Nc3cc(Cl)cc4c3OCCO4)nc12` [Compound 77, 1-(5-((7-chloro-2,3-dihydrobenzo[b][1,4]dioxin-5-yl)amino)-7-(methylamino)pyrazolo[1,5-a]pyrimidin-3-yl)-3-methylurea] registered an IC50 of less than 1000 nM.

As for `CNC(=O)Nc1cnn2c(NC)cc(Nc3cc(C)cc4c3OCCO4)nc12` [Compound 78, 1-methyl-3-(5-((7-methyl-2,3-dihydrobenzo[b][1,4]dioxin-5-yl)amino)-7-(methylamino)pyrazolo[1,5-a]pyrimidin-3-yl)urea], the IC50 is less than 1000 nM.

Regarding `CNc1cc(Nc2cc(C)cc3c2OCCO3)nc2c(NC(=O)NC3CC3)cnn12` [Compound 79, 1-cyclopropyl-3-(5-((7-methyl-2,3-dihydrobenzo[b][1,4]dioxin-5-yl)amino)-7-(methylamino)pyrazolo[1,5-a]pyrimidin-3-yl)urea], the IC50 lay in the range of 1000 to 10000 nM.

`CNC(=O)Nc1cnn2c(NC)cc(-c3cn(C4CCOCC4)c4ncccc34)nc12` [Compound 80, 1-methyl-3-(7-(methylamino)-5-(1-(tetrahydro-2H-pyran-4-yl)-1H-pyrrolo[2,3-b]pyridin-3-yl)pyrazolo[1,5-a]pyrimidin-3-yl)urea]: the IC50 was less than 1000 nM.

Turning to `CNC(=O)Nc1cnn2c(NC)cc(Nc3cc(OC)cc4c3OCCO4)nc12` [Compound 81, 1-(5-((7-methoxy-2,3-dihydrobenzo[b][1,4]dioxin-5-yl)amino)-7-(methylamino)pyrazolo[1,5-a]pyrimidin-3-yl)-3-methylurea], the IC50 is less than 1000 nM.

Take `CNc1cc(Nc2cc(C(F)(F)F)cc3c2OCCO3)nc2c(NC(=O)NC3CC3)cnn12` [Compound 82, 1-cyclopropyl-3-(7-(methylamino)-5-((7-(trifluoromethyl)-2,3-dihydrobenzo[b][1,4]dioxin-5-yl)amino)pyrazolo[1,5-a]pyrimidin-3-yl)urea]: the IC50 fell in the range of 1000 to 10000 nM.

The molecule `CNC(=O)Nc1cnn2c(NC)cc(Nc3cc(C#N)cc4c3OCCO4)nc12` [Compound 83, 1-(5-((7-cyano-2,3-dihydrobenzo[b][1,4]dioxin-5-yl)amino)-7-(methylamino)pyrazolo[1,5-a]pyrimidin-3-yl)-3-methylurea] gave an IC50 of less than 1000 nM.

For the molecule `CNc1cc(Nc2cc(OC)cc3c2OCCO3)nc2c(NC(=O)NC3CC3)cnn12` [Compound 84, 1-cyclopropyl-3-(5-((7-methoxy-2,3-dihydrobenzo[b][1,4]dioxin-5-yl)amino)-7-(methylamino)pyrazolo[1,5-a]pyrimidin-3-yl)urea], the IC50 lay in the range of 1000 to 10000 nM.

Regarding `CNc1cc(Nc2cc(Cl)cc3c2OCCO3)nc2c(NC(=O)NC3CC3)cnn12` [Compound 85, 1-(5-((7-chloro-2,3-dihydrobenzo[b][1,4]dioxin-5-yl)amino)-7-(methylamino)pyrazolo[1,5-a]pyrimidin-3-yl)-3-cyclopropylurea], the IC50 was less than 1000 nM.

On to `CNC(=O)Nc1cnn2c(NC)cc(-c3cn(C4COC4)c4ncccc34)nc12` [Compound 86, 1-methyl-3-(7-(methylamino)-5-(1-(oxetan-3-yl)-1H-pyrrolo[2,3-b]pyridin-3-yl)pyrazolo[1,5-a]pyrimidin-3-yl)urea], for which the IC50 is 1000 to 10000 nM.

On to `CNC(=O)Nc1cnn2c(NC)cc(-c3c[nH]c4ncccc34)nc12` [Compound 88, 1-methyl-3-(7-(methylamino)-5-(1H-pyrrolo[2,3-b]pyridin-3-yl)pyrazolo[1,5-a]pyrimidin-3-yl)urea], for which the IC50 was 1000 to 10000 nM.

Molecule `CNc1cc(Nc2cc(C#N)cc3c2OCCO3)nc2c(NC(=O)NC3CC3)cnn12` [Compound 89, 1-(5-((7-cyano-2,3-dihydrobenzo[b][1,4]dioxin-5-yl)amino)-7-(methylamino)pyrazolo[1,5-a]pyrimidin-3-yl)-3-cyclopropylurea] had an IC50 of less than 1000 nM.

In turn, `CNC(=O)Nc1cnn2c(NC)cc(Nc3c(F)cccc3F)nc12` [Compound 90, 1-(5-((2,6-difluorophenyl)amino)-7-(methylamino)pyrazolo[1,5-a]pyrimidin-3-yl)-3-methylurea] registered an IC50 of 1000 to 10000 nM.

`CNC(=O)Nc1cnn2c(NC)cc(Nc3cncc4ccccc34)nc12` [Compound 91, 1-(5-(isoquinolin-4-ylamino)-7-(methylamino)pyrazolo[1,5-a]pyrimidin-3-yl)-3-methylurea] registered an IC50 of 1000 to 10000 nM.

`CNC(=O)Nc1cnn2c(NC)cc(Nc3ccnc4c3OCCO4)nc12` [Compound 92, 1-(5-((2,3-dihydro-[1,4]dioxino[2,3-b]pyridin-8-yl)amino)-7-(methylamino)pyrazolo[1,5-a]pyrimidin-3-yl)-3-methylurea] gave an IC50 of 1000 to 10000 nM.

As to `CNc1cc(Nc2cccc3c2OCCO3)nc2c(NC(=O)NC3CCC3)cnn12` [Compound 93, 1-cyclobutyl-3-(5-((2,3-dihydrobenzo[b][1,4]dioxin-5-yl)amino)-7-(methylamino)pyrazolo[1,5-a]pyrimidin-3-yl)urea], the IC50 was less than 1000 nM.
